Laboratory results from US20210322622A1, “COMPOSITIONS AND METHODS FOR PREPARATION OF COMPOSITE POLYMER FILMS ON NON-CONDUCTING SUBSTRATES, INCLUDING BANDAGES, AND THEIR USE FOR TREATING WOUNDS” (The Johns Hopkins University, priority 2018, published 2021).

Tests used:
[1] = In vitro release of antibiotics from PLGA/PCL composite coatings on titanium K-wires (HPLC); assay type: physicochemical; conditions: stored coated pins, two-week in vitro release
Procedure: The release rate of the polymer composite film was measured by HPLC. Drug release studies were conducted using coated pins created with the same loading parameters as those used for later in vivo testing (10% (w/w) drug combinations) electrospun for 60 seconds at injection rates of 0.5 mL/h from each needle. Release rate of antibiotics from the composite polymer coating was characterized by placing coated pins in 200 μL pH 7.4 PBS buffer and incubating at 37° C. in an aluminum film-covered incubator to prevent possible light-induced drug degradation. Release media was changed at fixed time points over a period of two weeks and stored in a −20° C. freezer until analysis. Drug concentrations in release media for each day were determined via reverse-phase HPLC using a C-18 column in an Alliance HPLC system and Waters 2996 PDA detector. The mobile phase was a mixture of acetonitrile and water both mixed with 0.1% TFA acid, which was run at a gradient from (15%/85%) to (40%/60%) for a total runtime of 15 minutes per sample for the elution of Van/Rif and Lin/Rif drug loading groups. Elution of the Dap/Rif loading group was conducted using a mobile phase of (49%/51%) of acetonitrile and water both mixed with 0.1% TFA acid for a total run time of 11 minutes per sample. Concentrations of the drugs were quantified using wavelengths of 343 nm for Rif, 254 nm for Lin, 280 nm for Van and 223 nm for Dap using prepared standard curves for all three drugs. […] Quantification was performed through the derivatization of Gentamicin with ninhydrin at 95° C. for 15 minutes and detection with a Biotek Synergy2 plate reader.
(§1) Long-term efficacy of the antimicrobial activity was tested by storing electrospun pins at room temperature for 6 weeks, −20° C. for 6 weeks, and −80° C. for 8 months. Coated pins were protected from light during storage. These pins were then used in the same zone of inhibition assay as described hereinabove.
Drug release studies were conducted using coated pins created with the same loading parameters as detailed above. Release kinetics of antibiotics from the composite coating were characterized by placing coated pins in 200 μL of phosphate buffer saline (PBS, pH 7.4) at 37° C. Release media was changed daily over a period of two weeks and stored at −20° C. until analysis. Drug concentrations in release media were measured on days 1, 2, 3, 5, 7, 10 and 14 using a Waters Alliance 2690 HPLC system (Waters Corporation, Milford, Mass.) equipped with an Accucore RP-MS C18 column (100 mm×2.1 mm; Thermo Fisher Scientific) and a Waters 2996 PDA detector. The elution was carried out with a mobile phase of water and acetonitrile both mixed with 0.1% TFA at a flow rate of 1 mL/min at ambient temperature using a linear gradient elution program of 85% water to […] in 15 minutes. Concentrations of the drugs were quantified using wavelengths for Van (280 nm), Lin (254 nm), Dap (224 nm) and Rif (263 nm).

S. aureus = assay: In vitro zone of inhibition assay of coated K-wires; assay type: cell-based, Staphylococcus aureus; conditions: 6 weeks room temperature, 6 weeks −20° C., 8 months
From the text: A zone of inhibition assay was used as an additional assay to evaluate the in vitro release of antibiotic(s) from the composite coating. Tryptic soy agar bacterial plates were inoculated with S. aureus bacteria cells to yield a bacterial lawn after overnight culture. After bacterial inoculation and before culturing the plates, two identical titanium K-wires loaded with either 10 w/w % Lin, 10 w/w % Van, or 10 w/w % Dap alone, or in combination with Rif were placed in two separate areas on the plate. After culturing the plates at 37° C. for 24 hours, the antimicrobial activity of the eluded antibiotic(s) into the agar was measured as a zone of inhibition (diameter [mm]) of the bacterial growth around the K-wire.
as §1, with “hereinabove. These antimicrobial results were further confirmed with a two-week in vitro release study to determine release kinetics after storage.” for “hereinabove.”
Tryptic soy agar (TSA) bacterial plates were inoculated with S. aureus to yield a bacterial lawn after overnight culture. Before culturing the plates, two titanium K-wires each loaded with the same combination of antibiotics from each set were placed in two separate areas on the plate. After culturing at 37° C. for 24 hours, the zone of inhibition (ZOI) (diameter/mm) of bacterial growth were measured.

S. aureus strain Xen36 = assay: MIC of XEN36 for each antibiotic; assay type: cell-based, Staphylococcus aureus; conditions: Staphylococcus aureus, XEN36, read-out: MIC of XEN36
Procedure: S. aureus strain Xen36 (PerkinElmer, Waltham, Mass.) previously derived from the clinical bacteremia isolate ATCC 49525 (Wright) was used in all experiments. (Francis et al., 2000). […] (Francis et al., 2000). Xen36 was prepared for inoculation as previously described. (Niska et al., 2013; Pribaz et al. (2012)).

[2] = test system: S. aureus bioluminescent strain Xen36; assay: Mouse model of prosthetic joint infection (PJI): in vivo bioluminescence imaging and CFU; parameters: species or system mice; conditions: intravenous prophylaxis 110 mg/kg at −1 and 16 hours
From the text: A previously established mouse model of a prosthetic joint infection (PJI) (Pribaz et al., 2012) was used to evaluate the efficiencies of the composite coatings in providing sustained in situ release and in vivo antimicrobial activity (FIG. 5A, FIG. 5B, FIG. 5C, FIG. 5D, FIG. 5E, FIG. 5F, FIG. 5G, FIG. 5H, FIG. 5I, FIG. 5J, FIG. 5K, and FIG. 5L). A medical-grade titanium K-wire (0.5 mm in diameter, 9 mm in length) coated with PLGA/PCL fiber coating ± antibiotics was surgically placed into the right distal femur of mice. Briefly, a medial parapatellar arthrotomy on the right knee was performed with lateral displacement of the quadriceps-patellar complex. […]
Noninvasive and longitudinal measurements of the bacterial burden were performed using in vivo bioluminescence imaging of the bioluminescent signals from live and actively metabolizing Xen36 bacteria at the site of infection in the post-operative knee joints of anesthetized mice over a 2-week course of infection using the IVIS Lumina III in vivo imaging system (PerkinElmer) on days 0, 1, 3, 5, 7, and 14. Data are presented on a color scale overlaid on a grayscale photograph of mice and quantified as maximum radiance (photons/second/cm^2/steradian) within a circular region of interest (1×10^3 pixels) using Living Image software. […]

For `CN[C@H](CC(C)C)C(=O)N[C@H]1C(=O)N[C@@H](CC(N)=O)C(=O)N[C@H]2C(=O)N[C@H]3C(=O)N[C@H](C(=O)N[C@H](C(=O)O)c4cc(O)cc(O)c4-c4cc3ccc4O)[C@H](O)c3ccc(c(Cl)c3)Oc3cc2cc(c3O[C@@H]2O[C@H](CO)[C@@H](O)[C@H](O)[C@H]2O[C@H]2C[C@](C)(N)[C@H](O)[C@H](C)O2)Oc2ccc(cc2Cl)[C@H]1O` [Van, vancomycin], the “release kinetics after storage” value [1] was “no difference in the release kinetics”, the “antimicrobial activity (zone of inhibition) after storage versus freshly prepared coatings” value (S. aureus) was “no significant loss of antimicrobial activity” and the MIC (S. aureus strain Xen36) was 0.5 µg/mL. For the same compound, the BLI signals [2] was “decreased BLI signals” and the “CFU from bone/joint tissue and implants” value [2] was “the infection was not cleared as CFU were readily detected”.
